One experiment concerns the target T1, human CB1 receptor (Homo sapiens, UniProt P21554).
T1 construct: expressed in transfected cells; host or cells: human embryonic kidney (HEK) cells, Semliki Forest Virus system, membrane preparation
Briefly: CB1 receptor affinity, displacement of [3H]-CP-55,940. Type of experiment: binding. The following applies: HEK cell membranes, radioligand [3H]-CP-55,940. On the procedure:
(§1) CB1 and CB2 Receptor Affinity
(§2) The affinity of the compounds of the invention for cannabinoid receptors was determined using membrane preparations of human embryonic kidney (HEK) cells in which the human CB1 receptor is transiently transfected using a Semliki Forest Virus system in conjunction with [3H]-CP-55,940 as radioligand. After incubation of freshly prepared cell membrane preparation with the [^3H]-ligand, with or without addition of compounds of the invention, separation of bound and free ligand was performed by filtration over glass fiber filters. Radioactivity on the filter was measured by scintillation counting.
(§3) The ability of the compounds to displace the radioligand [^3H]-CP-55,940 was measured at a concentration of 10 μM and values provided as [% inhibition @10 μM] both for the CB1 and CB2 receptor assay, The lower % inhibition is, the lower the likelihood of side effects based on CB1 or CB2 receptor inhibition is.
(In general: Displacement assays read how much labelled ligand stays bound in the presence of the test substance.)

The next experiment deals with T2, human CB2 receptor (Homo sapiens, UniProt P34972).
T2 construct: expressed in transfected cells; host or cells: human embryonic kidney (HEK) cells, Semliki Forest Virus system, membrane preparation
T2 sequence (P34972 whole entry): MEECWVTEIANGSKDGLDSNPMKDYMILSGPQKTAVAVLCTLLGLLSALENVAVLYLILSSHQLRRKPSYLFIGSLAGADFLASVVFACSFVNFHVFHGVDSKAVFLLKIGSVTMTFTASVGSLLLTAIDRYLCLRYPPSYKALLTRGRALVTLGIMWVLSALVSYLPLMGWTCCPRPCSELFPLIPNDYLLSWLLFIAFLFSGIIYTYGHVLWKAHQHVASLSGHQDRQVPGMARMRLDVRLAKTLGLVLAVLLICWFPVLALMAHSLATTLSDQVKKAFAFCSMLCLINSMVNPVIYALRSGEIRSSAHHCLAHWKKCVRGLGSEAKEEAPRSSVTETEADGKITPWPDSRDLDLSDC
Briefly: CB2 receptor affinity, displacement of [3H]-CP-55,940. The experiment is classed as binding. The following applies: HEK cell membranes, radioligand [3H]-CP-55,940. As to the method: as §1
as §2, with “cannabinoid CB2” for “cannabinoid”, “CB2” for “CB1”, “[^3H]-CP-55,940” for “[3H]-CP-55,940”
as §3

In a further experiment the test system is ABCA1 protein. Briefly: Detection of upregulation of ABCA1 protein in cells (ApoA-I binding, High Content Image Analysis). Type of experiment: cell-based. The conditions noted are these: THP-1 macrophage cells, 24 hrs with compound. As to the method: Detection of upregulation of ABCA1 protein in cells
The ability of compounds of the invention to increase the level of ABCA1 protein is determined in replicate cultures of THP-1 macrophage cells in 96-well microplates. Cells are plated at an initial density of 100,000 cells/well in 100 μl medium and differentiated to adherent macrophages with the addition of PMA (100 nM) for 68 hrs in 10% fetal bovine serum, 3 μl/L of b-mercaptoethanol, RPMI-1640 medium. Then, cells are incubated with RPMI-1640 medium containing 1% FCS, 25 μg/ml acetylated LDL, for 24 hours at 37° C. Following incubation with acetylated LDL, cells are washed twice with 50 μl PBS and incubated with 100 μl of RPMI-1640 medium containing the compound of interest solubilized in DMSO for an additional 24 hrs. The final DMSO concentration in presence of cells is maintained at 0.5%. ApoA-I binding assay using High Content Image Analysis is initiated by replacing with fresh medium, RPMI without Phenol Red, 0.2% BSA containing AlexaFluor®647 labeled ApoA-I for 2 h/37° C./5% CO2. Then, cells are fixed with 4% Formaldehyde in PBS (15 min, RT). Following Nuclei are stained with Hoechst solution (3 μM PBS) and Cytoplasm with Cell Mask Blue (2 μg/ml PBS), 15 min, RT. Finally the stained cells are fixed with a second round of formaldehyde treatment. Fixed stained cells are washed and kept in PBS at 4° C. and can be read immediately until one month after preparation.
The Alexa Fluor 647-labeled Apolipoprotein A-I (20 nM) was prepared as follows: Human recombinant Apolipoprotein A-I (ApoA-I) was exchanged to a buffer of 0.02 M NaHCO3 at pH 8.2 on an NAP desalting column (GE Healthcare) and brought to a concentration to 40 μM (1.13 mg/ml) by adjustment with the same buffer. The ApoA-I was fluorescently labeled by incubation with Alexa Fluor carboxylic acid succimidyl ester (Alexa Fluor 647, Invitrogen A-20006) at a 2:1 molar ratio (Alexa to ApoA-I) for 1 h under shaking at RT. The remaining unconjugated label was removed by buffer exchange to 0.02M NaHCO3 at pH 8.2.
Imaging and data collection were performed on an OPERA confocal microplate imaging reader using a 20× water immersion objective and UV360 or 405 laser to identify the cell nuclei and a 635 laser to identify the fluorescent ApoA-I. Eight fields of view are captured per well. Image capture and analysis was performed with the Acapella software. Background fluorescence detected in control wells without ApoA-I was subtracted.
Using XLfit3 program (ID Business Solutions Ltd. UK), the model 205 for Dose Response One Site is used to calculate the EC50 values. […] Particularly, the compounds of the present invention have EC50 values in a range of 0.1 μM to 3 μM.

T1 sequence (P21554 whole entry): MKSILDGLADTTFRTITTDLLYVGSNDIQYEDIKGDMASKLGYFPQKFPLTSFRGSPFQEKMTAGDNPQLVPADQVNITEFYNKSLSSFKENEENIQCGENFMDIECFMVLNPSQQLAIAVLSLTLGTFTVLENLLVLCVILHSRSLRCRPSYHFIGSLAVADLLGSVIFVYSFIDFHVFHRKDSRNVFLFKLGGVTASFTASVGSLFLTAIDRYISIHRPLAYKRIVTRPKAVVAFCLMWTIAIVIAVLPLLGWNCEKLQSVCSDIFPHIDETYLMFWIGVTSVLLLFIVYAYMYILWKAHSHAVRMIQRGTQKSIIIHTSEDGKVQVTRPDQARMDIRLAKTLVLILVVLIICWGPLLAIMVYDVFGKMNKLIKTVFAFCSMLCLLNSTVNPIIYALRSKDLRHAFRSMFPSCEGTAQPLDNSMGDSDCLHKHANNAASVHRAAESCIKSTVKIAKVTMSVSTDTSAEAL

By inhibition is commonly meant the relative decrease from the control value, in per cent. Turning to `Cc1ocnc1C(=O)Nc1cnc(OCC(F)(F)F)c(C2CCCCC2)c1` [Example 10, 5-methyl-oxazole-4-carboxylic acid [5-cyclohexyl-6-(2,2,2-trifluoro-ethoxy)-pyridin-3-yl]-amide], the figures for the inhibition at 10 µM on human CB1 receptor and at human CB2 receptor were 13% and -8%, respectively. The “% increase of ABCA1 at 3 μM” value with ABCA1 protein is greater than 45% @ 3 μM.

Take `O=C(Nc1cnc(OCC(F)(F)F)c(C2CCCCC2)c1)c1ccccn1` [Example 11, pyridine-2-carboxylic acid [5-cyclohexyl-6-(2,2,2-trifluoro-ethoxy)-pyridin-3-yl]-amide]: the inhibition at 10 µM on human CB1 receptor was determined as 33%; at human CB2 receptor it was 3%. The “% increase of ABCA1 at 3 μM” value with ABCA1 protein is greater than 45% @ 3 μM.

Take `O=C(Nc1cnc(OCC(F)(F)F)c(C2CCCC2)c1)c1cncnc1` [Example 7, pyrimidine-5-carboxylic acid [5-cyclopentyl-6-(2,2,2-trifluoro-ethoxy)-pyridin-3-yl]-amide]: the inhibition at 10 µM on human CB1 receptor is 21%; on human CB2 receptor it was -12%. Moreover, the “% increase of ABCA1 at 3 μM” value with ABCA1 protein is reported as greater than 45% @ 3 μM.

With `O=C(Nc1cnc(OCC(F)(F)F)c(C2CCCC2)c1)c1ccccc1` [Example 6, N-[5-cyclopentyl-6-(2,2,2-trifluoro-ethoxy)-pyridin-3-yl]-benzamide], the inhibition at 10 µM is 40% on human CB1 receptor and -5% at human CB2 receptor. Moreover, the “% increase of ABCA1 at 3 μM” value in the experiment on ABCA1 protein is greater than 45% @ 3 μM.

For the compound `COc1cncc(C(=O)Nc2cnc(OCC(F)(F)F)c(C3CCCCC3)c2)c1` [Example 12, N-[5-cyclohexyl-6-(2,2,2-trifluoro-ethoxy)-pyridin-3-yl]-5-methoxy-nicotinamide], the inhibition at 10 µM at human CB1 receptor was 19%; on human CB2 receptor, -13%. Further, in the experiment with ABCA1 protein, the “% increase of ABCA1 at 3 μM” value was greater than 45% @ 3 μM.

Turning to `O=C(Nc1cnc(OCC(F)(F)F)c(C2CCCCC2)c1)c1ccccc1` [Example 13, N-[5-cyclohexyl-6-(2,2,2-trifluoro-ethoxy)-pyridin-3-yl]-benzamide], the inhibition at 10 µM at human CB1 receptor is 38%; at human CB2 receptor it was -13%. The “% increase of ABCA1 at 3 μM” value in the experiment on ABCA1 protein was greater than 45% @ 3 μM.

For `O=C(Nc1cnc(OCC(F)(F)F)c(C2CCCCC2)c1)c1cccnc1` [Example 8, N-[5-cyclohexyl-6-(2,2,2-trifluoro-ethoxy)-pyridin-3-yl]-nicotinamide], the inhibition at 10 µM on human CB1 receptor was 28%; at human CB2 receptor it was -13%. Further, the “% increase of ABCA1 at 3 μM” value with ABCA1 protein is greater than 45% @ 3 μM.

`Cc1cc(C(=O)Nc2cnc(OCC(F)(F)F)c(C3CCCC3)c2)[nH]n1` [Example 2, 5-methyl-2H-pyrazole-3-carboxylic acid [5-cyclopentyl-6-(2,2,2-trifluoro-ethoxy)-pyridin-3-yl]-amide]: the inhibition at 10 µM was 22% at human CB1 receptor and -12% at human CB2 receptor. Moreover, in the experiment on ABCA1 protein, the “% increase of ABCA1 at 3 μM” value is reported as greater than 45% @ 3 μM.

Regarding `Cc1ocnc1C(=O)Nc1cnc(OCC(F)(F)F)c(C2CCCC2)c1` [Example 3, 5-methyl-oxazole-4-carboxylic acid [5-cyclopentyl-6-(2,2,2-trifluoro-ethoxy)-pyridin-3-yl]-amide], the inhibition at 10 µM at human CB1 receptor came to 26%; at human CB2 receptor, 0%. The “% increase of ABCA1 at 3 μM” value with ABCA1 protein is greater than 45% @ 3 μM.

Turning to `O=C(Nc1cnc(OCC(F)(F)F)c(C2CCCC2)c1)c1cccnc1` [Example 4, N-[5-cyclopentyl-6-(2,2,2-trifluoro-ethoxy)-pyridin-3-yl]-nicotinamide], the values for the inhibition at 10 µM on human CB1 receptor and at human CB2 receptor were 34% and 2%, respectively. Further, the “% increase of ABCA1 at 3 μM” value in the experiment with ABCA1 protein is listed as greater than 45% @ 3 μM.

For the compound `COc1cncc(C(=O)Nc2cnc(OCC(F)(F)F)c(C3CCCC3)c2)c1` [Example 1, N-[5-cyclopentyl-6-(2,2,2-trifluoro-ethoxy)-pyridin-3-yl]-5-methoxy-nicotinamide], the figures for the inhibition at 10 µM at human CB1 receptor and on human CB2 receptor were 4% and -9%, respectively. Further, the “% increase of ABCA1 at 3 μM” value with ABCA1 protein is greater than 45% @ 3 μM.

In the case of `O=C(Nc1cnc(OCC(F)(F)F)c(C2CCCC2)c1)c1ccccn1` [Example 5, pyridine-2-carboxylic acid [5-cyclopentyl-6-(2,2,2-trifluoro-ethoxy)-pyridin-3-yl]-amide], the inhibition at 10 µM at human CB1 receptor was 28%; on human CB2 receptor it was -8%. Also, the “% increase of ABCA1 at 3 μM” value with ABCA1 protein is listed as greater than 45% @ 3 μM.

Turning to `Cc1cc(C(=O)Nc2cnc(OCC(F)(F)F)c(C3CCCCC3)c2)[nH]n1` [Example 9, 5-methyl-2H-pyrazole-3-carboxylic acid [5-cyclohexyl-6-(2,2,2-trifluoro-ethoxy)-pyridin-3-yl]-amide], the inhibition at 10 µM on human CB1 receptor was 27%; at human CB2 receptor, -9%. Further, the “% increase of ABCA1 at 3 μM” value in the experiment on ABCA1 protein is on record as greater than 45% @ 3 μM.

The record behind these values is patent US8455501B2, “N-(5-cycloalkyl)-pyridin-3-yl carboxamides” (Hoffmann-La Roche Inc, priority 2011, dated 2013).
